Reference: patent publication EP0888293B1, “N-ACYLAMINOALKYLHYDRAZINECARBOXIMIDAMIDES” (ALTEON Inc., priority 1995, dated 1997)
Where a name gives a salt, the structure may show the parent alone.

What was measured:
[1] = tested on: N-acetyl glycyl-lysine methyl ester; experiment: Inhibition of cross-linking of N-acetyl glycyl-lysine methyl ester in the presence of ribose (fluorescence); assay type: biochemical; details: N-acetylglycyllysine methyl ester + ribose, pH 7.4, 37°C, 16-24 hours, fluorescence 350/400 nm
Protocol: The following method was used to evaluate the ability of the compounds of the present invention to inhibit the cross-linking of N-acetyl glycyl-lysine methyl ester in the presence of ribose.
• 0.5 M sodium phosphate buffer pH 7.4 • N-acetylglycyllysine methyl ester in 0.5M sodium phosphate buffer, pH 7.4 • Ribose: 800 mM • Test compounds dissolved in the above buffer and the pH is adjusted to 7.4, if necessary
Reaction mixtures are prepared as follows:
and incubated at 37°C for 16-24 hours. At the end of the incubation period, the fluorescence is read using an excitation wavelength of 350 nm and emission wavelength of 400 nm.

[2] = target: T1, inducible nitric oxide synthase (Mus musculus, UniProt P29477); experiment: Nitric oxide production by lipopolysaccharide-induced macrophage cells; assay type: cell-based; details: RAW 264.7 macrophage cells induced with lipopolysaccharide; test concentration not given
T1 construct: Nitric oxide (NO) production by macrophage cells (RAW 264.7) is induced with lipopolysaccharride; endogenous in cells; host or cells: RAW 264.7 macrophage cells, LPS-induced

[3] = tested on: fixed protein (gelatin, i.e., collagen) surface; experiment: Surface browning experiment on gelatin/paper disks; details: 100 mM glucose-6-phosphate, one week at 50°C, pH 7.4; Peridex at final concentration of 0.04% chlorhexidine, no compound of Formula I
Protocol: To further study the ability of inhibitors of nonenzymatic browning to prevent the discoloration of protein on a surface, such as that which occurs on the tooth surface, the following surface browning experiment is performed. As a substitute for a pellicle-covered tooth surface, unexposed and developed photographic paper is used to provide a fixed protein (gelatin, i.e., collagen) surface on a paper backing. Five millimeter circles are punched and immersed for one week at 50°C in a solution of 100 mM glucose-6-phosphate in a 0.5 M phosphate buffer, pH 7.4, containing 3 mM sodium azide. Glucose-6-phosphate is a sugar capable of participating in nonenzymatic browning at a more rapid rate than glucose. In addition to the glucose-6-phosphate, chlorhexidine and/or a compound of Formula I are included. After incubation, the gelatin/paper disks are rinsed with water, observed for brown color, and photographed.

Structure (SMILES) | % inhibition of NO release [2] [%] | IC50 ([1]; hydrobromide) [mM] | IC50 ([1]; hydrochloride) [mM] | IC50 [1] [mM] | browning of gelatin/paper disks [3]
N=C(N)NN [Aminoguanidine hydrochloride, reference compound] | 44 | – | – | 10 | –
[H]/N=C(\N/C(=N/[H])NCCCCCCNC(=N)NC(=N)Nc1ccc(Cl)cc1)Nc1ccc(Cl)cc1 [chlorhexidine] | – | – | – | – | significant browning

The next lines start with results.

% inhibition of NO release [2] [%] | IC50 ([1]; hydrobromide) [mM] | IC50 ([1]; hydrochloride) [mM] | Structure (SMILES) | IC50 [1] [mM] | browning of gelatin/paper disks [3]
20 | 11.5 | – | Br.CC(=O)NCCNC(=N)NN [N-(2-acetamidoethyl)hydrazine carboximidamide hydrobromide] | – | –
15 | – | 10.6 | CC(=O)NCCNC(=N)NN.Cl [N-(2-acetamidoethyl)hydrazine carboximidamide hydrochloride] | – | –
33 | – | – | CC(=O)NCCCNC(=N)NN [N-(3-acetamidopropyl)hydrazinecarboximidamide] | > 10 | –
